Assays:
Assay type in all cases: cell-based
[1] = tested on: SNU-16 (FGFR2-amplification) cells; experiment: cell proliferation assay (CellTiterGlo), SNU-16 cells; details: 72 hours
Source text: (§1) In some embodiments, the biological assay assess the ability of the compounds to inhibit cell proliferation.
(§2) In some embodiments, cells (e.g., SNU-16 (FGFR2-amplification) cells) may be suspended and dispensed in plates. In some embodiments, cells (e.g., UM-UC-14 (FGFR3-S249C) cells) may be suspended and dispensed in plates. In some embodiments, cells (e.g., DMS-114 (FGFR1 overexpression) cells) may by suspended and dispensed in plates. In some embodiments, cells (e.g., RT-112 (FGFR3-Tacc3 fusion) cells) may be suspended and dispensed in plates. In some embodiments, to determine the effect of the compounds of the present disclosure on cell proliferation, cells (e.g., SNU-16, UM-UC-14, DMS-114 and […] cells) may be incubated in the presence of vehicle control (e.g., DMSO) or a compound of the present disclosure at varying concentrations and the inhibition of cell growth may be determined by luminescent quantification (e.g., of intracellular ATP content using CellTiterGlo), according to the manufacturers protocol. In some embodiments, to determine the IC50 values, the vehicle-treated cells were normalized as viable cells and the growth was analyzed using a software (e.g., the CDD Vault software (Collaborative Drug Discovery, Burlingame, CA)).

[2] = tested on: UM-UC-14 (FGFR3-S249C) cells; experiment: cell proliferation assay (CellTiterGlo), UM-UC-14 cells
Source text: as §1, §2

[3] = tested on: DMS-114 (FGFR1 overexpression) cells; experiment: cell proliferation assay (CellTiterGlo), DMS-114 cells
Source text: as §1, §2

[4] = tested on: RT-112 (FGFR3-Tacc3 fusion) cells; experiment: cell proliferation assay (CellTiterGlo), RT-112 cells; details: 72 hours
Source text: as §1, §2

[5] = Homo sapiens, RT-112, RT112 cells

IC50 ([1]; Homo sapiens) [nM] | IC50 [1] [nM] | SMILES | IC50 ([2]; UMUC14, 72 h) [nM] | IC50 ([3]; Homo sapiens, DMS-114, 72 h) [nM] | IC50 [4, 5] [nM] | IC50 ([2]; 72 hours) [nM] | IC50 ([3]; 72 hours) [nM] | IC50 ([4]; RT112 cells) [nM]
20 to 100 |  | Cc1nc2ccc(Oc3ccc4ncc(-c5cnn(C6CCN(CC(F)(F)F)CC6)c5)nc4c3Cl)cc2[nH]1 [Compound 303] | 20 to 100 | ≥ 400 | 20 to 100 |  |  | 
20 to 100 |  | Cc1nc2ccc(Oc3ccc4ncc(-c5cnn(CC6COCCN6)c5)nc4c3Cl)cc2[nH]1 (centres unmarked) [Compound 246] | 20 to 100 | ≥ 400 | 20 to 100 |  |  | 
20 to 100 |  | Cc1nc2ccc(Oc3ccc4ncc(-c5cnn([C@H]6C[C@H](N7CCOCC7)C6)c5)nc4c3Cl)cc2[nH]1 [Compound 324] | 20 to 100 | ≥ 400 | 20 to 100 |  |  | 
< 20 |  | Cc1nc2ccc(Oc3ccc4ncc(-c5cnn([C@H]6C[C@](C)(O)C6)c5)nc4c3Cl)c(F)c2[nH]1 [Compound 149] | < 20 | 100 to 400 | < 20 |  |  | 
< 20 |  | Cc1nc2ccc(Oc3ccc4ncc(-c5cnn(C6CCNC7(CC7)C6)c5)nc4c3Cl)c(F)c2[nH]1 (centres unmarked) [Compound 139] | 20 to 100 | 20 to 100 | < 20 |  |  | 
20 to 100 |  | Cc1nc2ccc(Oc3ccc4ncc(-c5cnn(C6CCN(CC(F)(F)F)C7(CC7)C6)c5)nc4c3Cl)c(F)c2[nH]1 (centres unmarked) [Compound 121] | 20 to 100 | ≥ 400 | 20 to 100 |  |  | 
100 to 400 |  | Cc1nc2ccc(Oc3ccc4ncc(-c5cnn(CC6CC(F)(F)C6)c5)nc4c3C)cc2[nH]1 [Compound 302] | 100 to 400 | ≥ 400 | 100 to 400 |  |  | 
20 to 100 |  | Cc1nc2ccc(Oc3ccc4ncc(-c5cnn(C6CC7(C6)OCCO7)c5)nc4c3Cl)cc2[nH]1 [Compound 346] | 20 to 100 | ≥ 400 | 20 to 100 |  |  | 
 | 20 to 100 | Cc1nc2ccc(Oc3ccc4ncc(-c5cnn([C@H]6CC7(C[C@@H](O)C7)C6)c5)nc4c3Cl)cc2[nH]1 (some centres unmarked) [Compound 124] |  |  |  | 20 to 100 | ≥ 400 | 20 to 100
20 to 100 |  | Cc1nc2ccc(Oc3ccc4ncc(-c5cnn(C6CC7CC6CN7C)c5)nc4c3Cl)cc2[nH]1 (centres unmarked) [Compound 351] | 20 to 100 | 100 to 400 | 20 to 100 |  |  | 
20 to 100 |  | Cc1nc2ccc(Oc3ccc4ncc(-c5cnn(CC6CC7CC6CN7C)c5)nc4c3Cl)cc2[nH]1 (centres unmarked) [Compound 379] | 20 to 100 | 100 to 400 | 20 to 100 |  |  | 
≥ 400 |  | Cc1nc2ccc(Oc3ccc4ncc(-c5cnn(CC(=O)NCCO)c5)nc4c3Cl)cc2[nH]1 [Compound 348] | ≥ 400 | ≥ 400 | 100 to 400 |  |  | 
20 to 100 |  | Cc1nc2ccc(Oc3ccc4ncc(-c5cnn([C@H]6CCN(C7COC7)C[C@@H]6F)c5)nc4c3Cl)cc2[nH]1 [Compound 360] | 20 to 100 | ≥ 400 | 20 to 100 |  |  | 
100 to 400 |  | CC(=O)NC1(Cn2cc(-c3cnc4ccc(Oc5ccc6nc(C)[nH]c6c5)c(Cl)c4n3)cn2)CC1 [Compound 98] | ≥ 400 | ≥ 400 | 100 to 400 |  |  | 
100 to 400 |  | Cc1nc2ccc(Oc3ccc4ncc(-c5cnn(C6CN(c7cncc(F)c7)C6)c5)nc4c3Cl)cc2[nH]1 [Compound 196] | 100 to 400 | ≥ 400 | 100 to 400 |  |  | 
20 to 100 |  | Cc1nc2ccc(Oc3ccc4ncc(-c5cnn([C@H]6CC[C@@H](N7CCC7)CC6)c5)nc4c3Cl)cc2[nH]1 [Compound 356] | 20 to 100 | 100 to 400 | 20 to 100 |  |  | 
20 to 100 |  | Cc1nc2ccc(Oc3ccc4ncc(-c5cnn(C6CN(CC#N)C6)c5)nc4c3Cl)cc2[nH]1 [Compound 254] | 20 to 100 | ≥ 400 | 20 to 100 |  |  | 
≥ 400 |  | Cc1nc2ccc(Oc3ccc4ncc(-c5cnn(C6CCC(F)(F)CC6)c5)nc4c3Cl)cc2o1 [Compound 186] | ≥ 400 | ≥ 400 | ≥ 400 |  |  | 
100 to 400 |  | Cc1nc2ccc(Oc3ccc4ncc(-c5cnn(CC6CCNCC6)c5)nc4c3C)cc2[nH]1 [Compound 292] | 20 to 100 | ≥ 400 | 100 to 400 |  |  | 
20 to 100 |  | Cc1nc2ccc(Oc3ccc4ncc(-c5cnn(C6CC(=O)C6)c5)nc4c3Cl)cc2[nH]1 [Compound 242] | 20 to 100 | ≥ 400 | 20 to 100 |  |  | 
20 to 100 |  | COC1CN([C@H]2C[C@H](n3cc(-c4cnc5ccc(Oc6ccc7nc(C)[nH]c7c6)c(Cl)c5n4)cn3)C2)C1 [Compound 202] | 20 to 100 | ≥ 400 | 20 to 100 |  |  | 

IC50 ([1]; Homo sapiens) [nM] | IC50 [1] [nM] | SMILES | IC50 ([2]; UMUC14, 72 h) [nM] | IC50 ([3]; Homo sapiens, DMS-114, 72 h) [nM] | IC50 [4, 5] [nM] | IC50 ([2]; 72 hours) [nM] | IC50 ([3]; 72 hours) [nM] | IC50 ([4]; RT112 cells) [nM]
20 to 100 |  | Cc1nc2ccc(Oc3ccc4ncc(-c5cnn([C@H]6CC[C@H](N7CCC7)CC6)c5)nc4c3Cl)cc2[nH]1 [Compound 355] | 20 to 100 | 100 to 400 | 20 to 100 |  |  | 
20 to 100 |  | Cc1nc2ccc(Oc3ccc4ncc(-c5cnn(CC6CCSCC6)c5)nc4c3Cl)cc2[nH]1 [Compound 377] | 20 to 100 | ≥ 400 | 20 to 100 |  |  | 
100 to 400 |  | Cc1nc2ccc(Oc3ccc4ncc(-c5cnn(CC6CC(F)(F)C6)c5)nc4c3C3=CCNC3)cc2[nH]1 [Compound 83] | 20 to 100 | ≥ 400 | 100 to 400 |  |  | 
≥ 400 |  | Cc1nc2ccc(Oc3ccc4ncc(-c5cnn(CC6(O)CC6)c5)nc4c3N3CCOC3=O)c(F)c2[nH]1 [Compound 74] | ≥ 400 | ≥ 400 | ≥ 400 |  |  | 
100 to 400 |  | CCc1nc2cc(Oc3ccc4ncc(-c5cnn(CC6CC(F)(F)C6)c5)nc4c3Cl)ccc2[nH]1 [Compound 219] | 100 to 400 | ≥ 400 | 100 to 400 |  |  | 
< 20 |  | Cc1nc2ccc(Oc3ccc4ncc(-c5cnn(CC6CC(O)C6)c5)nc4c3Cl)cc2[nH]1 (centres unmarked) [Compound 325] | 20 to 100 | ≥ 400 | < 20 |  |  | 
< 20 |  | Cc1nc2ccc(Oc3ccc4ncc(-c5cnn(CC6(O)CC6)c5)nc4c3C3=CC(C)(C)OC3)c(F)c2[nH]1 [Compound 73] | < 20 | 20 to 100 | < 20 |  |  | 
20 to 100 |  | CC(=O)N1CCCC(n2cc(-c3cnc4ccc(Oc5ccc6nc(C)[nH]c6c5)c(Cl)c4n3)cn2)C1 (centres unmarked) [Compound 373] | 20 to 100 | ≥ 400 | 20 to 100 |  |  | 
≥ 400 |  | Cc1nc2ccc(Oc3ccc4ncc(-c5cnn(C6(CCO)CCNCC6)c5)nc4c3Cl)cc2[nH]1 [Compound 318] | ≥ 400 | ≥ 400 | ≥ 400 |  |  | 
≥ 400 |  | Clc1c(Oc2ccn3cncc3c2)ccc2ncc(-c3cnn(CC4CCN(C5COC5)CC4)c3)nc12 [Compound 312] | ≥ 400 | ≥ 400 | ≥ 400 |  |  | 
20 to 100 |  | Cc1nc2ccc(Oc3ccc4ncc(-c5cnn(C6CCS(=N)(=O)CC6)c5)nc4c3Cl)cc2[nH]1 (centres unmarked) [Compound 85] | 100 to 400 | ≥ 400 | 20 to 100 |  |  | 
< 20 |  | COC(=O)C(C)(C)n1cc(-c2cnc3ccc(Oc4ccc5nc(C)[nH]c5c4F)c(Cl)c3n2)cn1 [Compound 112] | < 20 | 100 to 400 | 20 to 100 |  |  | 
< 20 |  | Cc1nc2ccc(Oc3ccc4ncc(-c5cnn(CC6CC(C)(O)C6)c5)nc4c3Cl)cc2[nH]1 (centres unmarked) [Compound 257] | 20 to 100 | 100 to 400 | < 20 |  |  | 
100 to 400 |  | Cc1nc2ccc(Oc3ccc4ncc(-c5cnn(CCN6CC(O)C6)c5)nc4c3Cl)cc2[nH]1 [Compound 198] | 100 to 400 | ≥ 400 | 20 to 100 |  |  | 
 | < 20 | Cc1nc2ccc(Oc3ccc4ncc(-c5cnn([C@H]6CC7(C[C@@H](O)C7)C6)c5)nc4c3Cl)c(F)c2[nH]1 (some centres unmarked) [Compound 128] |  |  |  | < 20 | 100 to 400 | < 20
20 to 100 |  | Cc1nc2ccc(Oc3ccc4ncc(-c5cnn(CC6CCNCC6(F)F)c5)nc4c3Cl)cc2[nH]1 (centres unmarked) [Compound 386] | 20 to 100 | ≥ 400 | 20 to 100 |  |  | 
20 to 100 |  | Cc1nc2ccc(Oc3ccc4ncc(-c5cnn(CC6CC(=O)C6)c5)nc4c3Cl)cc2[nH]1 [Compound 308] | 20 to 100 | ≥ 400 | 20 to 100 |  |  | 
20 to 100 |  | C=C(C)c1c(Oc2ccc3nc(C)[nH]c3c2)ccc2ncc(-c3cnn(CC4CC(F)(F)C4)c3)nc12 [Compound 231] | 20 to 100 | ≥ 400 | 20 to 100 |  |  | 
100 to 400 |  | Cc1nc2ccc(Oc3ccc4ncc(-c5cnn(C6CCN(c7ccccn7)CC6)c5)nc4c3Cl)cc2[nH]1 [Compound 194] | 100 to 400 | ≥ 400 | 100 to 400 |  |  | 
< 20 |  | Cc1nc2ccc(Oc3ccc4ncc(-c5cnn([C@H](C)C6CC(F)(F)C6)c5)nc4c3Cl)c(F)c2[nH]1 [Compound 109] | < 20 | 100 to 400 | < 20 |  |  | 

Reference: US20240368181A1, “QUINOXALINE DERIVATIVES AND USES THEREOF” (Black Diamond Therapeutics, Inc., priority 2021, published 2024)
